Values of other authors, collected in patent US20080171083A1, “Pharmaceutical Compositions Comprising an Amphiphilic Starch” (VECTURE LIMITED, priority 2004, published 2008).
Where a name gives a salt, the structure may show the parent alone.

Conditions: class-1 high solubility, class-2 highly permeable, low solubility, class-3 low permeability, class-4 low solubility

| Compound | BCS class (solubility / permeability) |
| --- | --- |
| COc1ccccc1OCCNCC(O)COc1cccc2[nH]c3ccccc3c12 (stereo not shown) [Carvedilol] | class-4 |
| NCC1(CC(=O)O)CCCCC1 [Gabapentin] | class-3 |
| COc1ccc2c(c1)c(CC(=O)O)c(C)n2C(=O)c1ccc(Cl)cc1 [Indomethacin] | class-2 |
| CC(C)NCC(O)COc1cccc2ccccc12 (stereo not shown) [propranolol hydrochloride] | class-1 |
